system: not given; experiment: not given; conditions: based on steady-state pharmacokinetics; cited from earlier work

Row | SMILES | plasma antibiotic threshold level
1 | CN(C)c1ccc(O)c2c1C[C@H]1C[C@H]3[C@H](N(C)C)C(O)=C(C(N)=O)C(=O)[C@@]3(O)C(O)=C1C2=O [Minocycline, 7-dimethylaminotetracycline] | 0.8 µg/mL
2 | C[C@H]1c2cccc(O)c2C(=O)C2=C(O)[C@]3(O)C(=O)C(C(N)=O)=C(O)[C@@H](N(C)C)[C@@H]3[C@@H](O)[C@@H]21 [Doxycycline, 6α-deoxy-5-hydroxytetracycline, reference compound] | 1.0 µg/mL
3 | CN(C)[C@@H]1C(=O)C(C(N)=O)=C(O)[C@@]2(O)C(=O)C3=C(O)c4c(O)cccc4[C@@](C)(O)[C@H]3C[C@@H]12 [Tetracycline, reference compound] | 0.5 µg/mL

system: BALB/c 3T3 (CCL-163) cells; experiment: 3T3 Neutral Red uptake phototoxicity assay (with/without UVA); conditions: not given
Protocol: Streptomycin sulfate ([…]) and penicillin (100 IU/ml) were added to the medium after the cells were treated with test article in 96-well plates.
Serial dilutions of the tetracycline derivatives were prepared in DMSO at concentrations 100× to final testing concentration. The COL dilutions in DMSO were then diluted in Hanks' Balanced Salt Solution (HBSS) for application to the cells. The final DMSO concentration was 1% in treated and control cultures. A dose range finding assay is conducted with eight serial dilutions covering a range of 100-0.03 μg/ml in half log steps. Definitive assays are conducted with 6-8 serial dilutions prepared in quarter log steps, centered on the expected 50% toxicity point as determined in the dose range finding assay. One hundred 100 μg/ml was the highest dose recommended to prevent false negative results from UV absorption by the dosing solutions. One dose range finding and at least two definitive trials were performed on each tetracycline derivative and control compound.
Controls: Each assay included both negative (solvent) and positive controls. Twelve wells of negative control cultures were used on each 96-well plate. Chlorpromazine (Sigma Chemicals) was used as the positive control and was prepared and dosed like the test tetracycline derivatives.
Solar Simulator: A Dermalight SOL 3 solar simulator, equipped with a UVA H1 filter (320-400 nm), was adjusted to the appropriate height. Measurement of energy through the lid of a 96-well microtiter plate was carried out using a calibrated UV radiometer UVA sensor. Simulator height was adjusted to deliver 1.7±0.1 mW/cm^2 of UVA energy (resulting dose was 1 J/cm^2 per 10 minutes of exposure).
Phototoxicity Assay: Duplicate plates were prepared for each test material by seeding 10^4 3T3 cells per well in complete medium 24 hours before treatment. Prior to treatment, the medium was removed, and the cells washed once with 125 μl of prewarmed HBSS. Fifty μl of prewarmed HBSS were added to each well. Fifty μl of each test article dilution were added to the appropriate wells and the plates returned to the incubator for approximately one hour. Six wells were treated with each dose of test or control article on each plate. Following the 1 hr incubation, the plates designated for the photo irradiation were exposed (with the lid on) to 1.7±0.1 mW/cm^2 UVA light for 50±2 minutes at room temperature resulting in an irradiation dose of 5 J/cm^2. Duplicate plates, designated for the measurement of cytotoxicity without light, were kept in the dark room temperature for 50±2 minutes. After the 50 minute exposure period (with or without light) the test article dilutions were decanted from the plates and the cells washed once with 125 μl of HBSS. One hundred μl of medium were added to all wells and the cells incubated as above for 24±1 hours.
After 24 hours of incubation, the medium was decanted and 100 μl of the Neutral Red containing medium were added to each well. The plates were returned to the incubator and incubated for approximately 3 hours. After 3 hours, the medium was decanted and each well rinsed once with 250 μl of HBSS. The plates were blotted to remove the HBSS and 100 μl of Neutral Red Solvent were added to each well. After a minimum of 20 minutes of incubation at room temperature (with shaking), the absorbance at 550 nm was measured with a plate reader, using the mean of the blank outer wells as the reference. Relative survival was obtained by comparing the amount of neutral red taken by each well treated with the test article and positive control to the neutral red taken up by the average of the negative wells (12 wells) on the same plate. The amount of neutral red taken up by the negative control wells is considered to be 100% survival.

Row | SMILES | PIF 1 (photoirritancy factor, earlier software) | PIF 2 (photoirritancy factor, OECD Draft Guideline 432)
4 | CC1c2ccc(N)c(O)c2C(=O)C2=C(O)C3(O)C(=O)C(C(N)=O)=C(O)CC3C(O)C21 (stereo not drawn) [COL 805, 9-amino-4-dedimethylaminodoxycycline] | 1.0 | 
5 | CN(C)c1ccc(O)c2c1CC1CC3CC(O)=C(C(N)=O)C(=O)C3(O)C(O)=C1C2=O (stereo not drawn) [COL 10, 4-dedimethylaminominocycline] |  | 2.04
6 | CCCCCCCCCCCCCCCC(=O)Nc1ccc2c(c1O)C(=O)C1=C(O)C3(O)C(=O)C(C(N)=O)=C(O)CC3CC1C2 (stereo not drawn) [COL 311, 9-palmitamide-6-demethyl-6-deoxy-4-dedimethylaminotetracycline] | 1.0 | 
7 | NC(=O)C1=C(O)CC2CC3Cc4ccc(N)c(O)c4C(=O)C3=C(O)C2(O)C1=O (stereo not drawn) [COL 308, 9-amino-6-demethyl-6-deoxy-4-dedimethylaminotetracycline] | 1.0 | 
8 | O=C(NCN1CCNCC1)C1=C(O)CC2CC3Cc4cccc(O)c4C(=O)C3=C(O)C2(O)C1=O (stereo not drawn) [COL 315, 2-CONHCH2-piperazin-1-yl-6-demethyl-6-deoxy-4-dedimethylaminotetracycline] | 15.8 | 35.30
9 | CN(C)c1cc([N+](=O)[O-])c(O)c2c1CC1CC3CC(O)=C(C(N)=O)C(=O)C3(O)C(O)=C1C2=O (stereo not drawn) [COL 1002, 9-nitro-4-dedimethylaminominocycline] |  | 1.35
10 | O=C(NCN1CCOCC1)C1=C(O)CC2CC3Cc4cccc(O)c4C(=O)C3=C(O)C2(O)C1=O (stereo not drawn) [COL 314, 2-CONHCH2-morpholin-1-yl-6-demethyl-6-deoxy-4-dedimethylaminotetracycline] | 41.1 | 89.48
11 | NC(=O)C1=C(O)CC2CC3Cc4c([N+](=O)[O-])ccc(O)c4C(=O)C3=C(O)C2(O)C1=O (stereo not drawn) [COL 302, 7-nitro-6-demethyl-6-deoxy-4-dedimethylaminotetracycline] | 23.16 | 23.32
12 | O=C(NCN1CCCCC1)C1=C(O)CC2CC3Cc4cccc(O)c4C(=O)C3=C(O)C2(O)C1=O (stereo not drawn) [COL 313, 2-CONHCH2-piperidin-1-yl-6-demethyl-6-deoxy-4-dedimethylaminotetracycline] | 80.27 | 58.22
13 | CC1c2cccc(O)c2C(=O)C2=C(O)C3(O)C(=O)C(C(=O)NCN4CCCC4)=C(O)CC3C(O)C21 (stereo not drawn) [COL 807, 2-CONHCH2-pyrrolidin-1-yl-4-dedimethylaminodoxycycline] | 40.4 | 
14 | NC(=O)C1=C(O)CC2CC3Cc4c(N)ccc(O)c4C(=O)C3=C(O)C2(O)C1=O (stereo not drawn) [COL 307, 7-amino-6-demethyl-6-deoxy-4-dedimethylaminotetracycline] | 1.17 | 
15 | CC(=O)Nc1ccc2c(c1O)C(=O)C1=C(O)C3(O)C(=O)C(C(N)=O)=C(O)CC3C(O)C1C2C (stereo not drawn) [COL 801, 9-acetamido-4-dedimethylaminodoxycycline] | 1.0 | 
16 | CC1c2ccc([N+](=O)[O-])c(O)c2C(=O)C2=C(O)C3(O)C(=O)C(C(N)=O)=C(O)CC3C(O)C21 (stereo not drawn) [COL 804, 9-nitro-4-dedimethylaminodoxycycline] | 1.0 | 
17 | CC1c2cccc(O)c2C(=O)C2=C(O)C3(O)C(=O)C(C(=O)NCN4CCCCC4)=C(O)CC3C(O)C21 (stereo not drawn) [COL 808, 2-CONHCH2-piperidin-1-yl-4-dedimethylaminodoxycycline] | 46.45 | 
18 | O=C(NCN1CCCC1)C1=C(O)CC2CC3Cc4cccc(O)c4C(=O)C3=C(O)C2(O)C1=O (stereo not drawn) [COL 312, 2-CONHCH2-pyrrolidin-1-yl-6-demethyl-6-deoxy-4-dedimethylaminotetracycline] | 62.67 | 75.11
19 | CN(C)c1ccc2c(c1O)C(=O)C1=C(O)C3(O)C(=O)C(C(N)=O)=C(O)CC3CC1C2 (stereo not drawn) [COL 306, 9-dimethylamino-6-demethyl-6-deoxy-4-dedimethylaminotetracycline] | 1.64 | 1.56
20 | CC1c2cccc(O)c2C(=O)C2=C(O)C3(O)C(=O)C(C(N)=O)=C(O)CC3C(O)C21 (stereo not drawn) [COL 8, 4-dedimethylaminodoxycycline] | 165 | 82.61
21 | NC(=O)C1=C(O)CC2CC3Cc4ccc([N+](=O)[O-])c(O)c4C(=O)C3=C(O)C2(O)C1=O (stereo not drawn) [COL 303, 9-nitro-6-demethyl-6-deoxy-4-dedimethylaminotetracycline] | 5.27 | 13.82
22 | NC(=O)C1=C(O)C[C@@H]2C[C@@H]3Cc4cccc(O)c4C(=O)C3=C(O)[C@]2(O)C1=O [COL 3, 6-demethyl-6-deoxy-4-dedimethylaminotetracycline] | 647 | 84.72
23 | CN(C)CC(=O)Nc1ccc2c(c1O)C(=O)C1=C(O)C3(O)C(=O)C(C(N)=O)=C(O)CC3CC1C2 (stereo not drawn) [COL 309, 9-dimethylaminoacetamido-6-demethyl-6-deoxy-4-dedimethylaminotetracycline] | 5.17 | 12.87
24 | CC1c2ccc(NC(=O)CN(C)C)c(O)c2C(=O)C2=C(O)C3(O)C(=O)C(C(N)=O)=C(O)CC3C(O)C21 (stereo not drawn) [COL 802, 9-dimethylaminoacetamido-4-dedimethylaminodoxycycline] | 1.0 | 

same assay, conditions: 3T3 cells, 5 J/cm^2 UVA vs dark; <0.1 nonphototoxin, 0.1 to <0.15 probable, >=0.15 clear phototoxin

Row | SMILES | MPE (mean photo effect)
25 | CN(C)[C@@H]1C(=O)C(C(N)=O)=C(O)[C@@]2(O)C(=O)C3=C(O)c4c(O)cccc4[C@@](C)(O)[C@H]3C[C@@H]12 [Tetracycline, reference compound] | 0.340

same assay, conditions: IC50(-UVA)/IC50(+UVA), 3T3 cells; >5 indicative of phototoxic potential

Row | SMILES | PIF 1 (photoirritancy factor, earlier software)
26 | CN(C)[C@@H]1C(=O)C(C(N)=O)=C(O)[C@@]2(O)C(=O)C3=C(O)c4c(O)cccc4[C@@](C)(O)[C@H]3C[C@@H]12 [Tetracycline, reference compound] | 5.38

same assay, conditions: mouse

Row | SMILES | PIF 2 (photoirritancy factor, OECD Draft Guideline 432) | PIF 1 (photoirritancy factor, earlier software)
27 | CN(C)CCCN1c2ccccc2Sc2ccc(Cl)cc21 [Chlorpromazine, reference compound] | 40.38 | 
28 | C[C@H]1c2cccc(O)c2C(=O)C2=C(O)[C@]3(O)C(=O)C(C(N)=O)=C(O)[C@@H](N(C)C)[C@@H]3[C@@H](O)[C@@H]21 [Doxycycline, 6α-deoxy-5-hydroxytetracycline, reference compound] | 26.71 | 23.37
